Data as given in US6150414A, “Compositions and methods for treating viral infections” (priority 1992, dated 2000).
“And” between values parts separate entries of the source, which are not always exact repeats. Identical values can stand only once.

Key:
[1] = test system: Friend Leukemia Virus; experiment: Inhibition of Friend Leukemia Virus-induced splenomegaly in mice, compounds intraperitoneally 24 hours after virus (Example 1(a)); format: in vivo, BALB/c mice; settings: dose 150 mg (so in the source); Table III second set
Method in brief: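 BALB/c mice inoculated i.v. with 10^6 FFU Friend virus (spleen homogenate); compounds given i.p. 24 h later at 100 μg once, or 50, 100, 200 μg or 2×100 μg (second dose 24–48 h after first), two mice per group. Spleens weighed at day 10; percent inhibition from average spleen weights relative to negative and positive controls.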

[2] = molecular target: T1, Radiation Leukemia Virus reverse transcriptase (Radiation murine leukemia virus, UniProt P11227); experiment: Radiation Leukemia Virus reverse transcriptase assay, supernatants from infected AQR cells (Examples 4 and 9); format: biochemical; settings: Table VI; for CPM: replicate, listed as Hy
T1 construct: the reverse transcriptase of Radiation Leukemia Virus; endogenous in cells
Method in brief: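 Supernatants from AQR cells chronically infected with RadLV were incubated 30 min on ice with the test compound (hypericin, protohypericin or HHA). Virus was pelleted at 100,000×g for 1 h at 4 °C, and the pellet was assayed for reverse transcriptase activity.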

[3] = test system: Friend Leukemia Virus; experiment: In vivo inhibition of Friend Leukemia Virus splenomegaly, intravenous 1-2 hours post infection (Example 10); parameters: species or system mice; settings: Mus musculus, read-out: EC50 for FV-induced splenomegaly
Experimental: (3) In vivo inhibition of Friend Leukemia Virus Splenomegaly performed as described in Example 1 above except that the compounds were administered intravenously 1-2 hours post infection.
The results presented above in Table IX are presented as EC50 concentrations. These are the effective concentrations which inhibit 50% of the viruses in micromolar concentrations.

[4] = Antiviral activity of hypericin as a function of frequency of treatment in mouse studies; format: in vivo
Excerpt: The present inventors have also discovered that the antiviral activity of hypericin is a function of the frequency of treatment. […] While the foregoing observations in mice may not be applicable to other mammals or humans, those skilled in the art will appreciate that the frequency of treatment is subject to optimization, which can be determined by routine experimentation according to methods well known in the art, e.g. by establishing a matrix of dosage and frequency and assigning a group of experimental subjects to each point of the matrix. Design of this experiment should preferably also take into account the tissue accumulation properties of PAC compounds.

[5] = test system: retroviruses; experiment: Comparison over two in vitro and one in vivo biological assays (Example 10); settings: Example 10
Method in brief: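 In vitro direct inactivation of retroviruses was tested alongside in vivo inhibition of Friend Leukemia Virus splenomegaly in mice. For the in vivo test, compounds were given intravenously 1-2 hours post infection.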

In the case of `Cc1cc(O)c2c(=O)c3c(O)cc(O)c4c5c(O)cc(O)c6c(=O)c7c(O)cc(C)c8c1c2c(c34)c(c78)c65` [hypericin, Hypericin], the “Average Spleen Weight” value [1] is reported as 0.7707, the “Average CPM” value ([2]; 0.4 micrograms) is reported as 2,489 CPM and the “Average percent inhibition” value ([2]; 0.4 micrograms) is reported as 99.4%. For the same compound, the CPM ([2]; 0.4 micrograms) was 1,700 CPM and 3,278 CPM, the “Average CPM” value ([2]; 2 micrograms) was 9,986 CPM and the “Average percent inhibition” value ([2]; 2 micrograms) was 97.8%. The CPM ([2]; 2 micrograms) was 14,474 CPM and 5,498 CPM, the “Average CPM” value ([2]; 10 micrograms) was 11,588 CPM and the “Average percent inhibition” value ([2]; 10 micrograms) was 97.4%. For the same compound, the CPM ([2]; 10 micrograms) was 9,288 CPM and 13,888 CPM, the “Average CPM” value ([2]; 50 micrograms) was 31,818 CPM and the “Average percent inhibition” value ([2]; 50 micrograms) was 92.9%. For the same compound, the CPM ([2]; 50 micrograms) was 33,948 CPM and 29,688 CPM, the “Average CPM” value ([2]; 100 micrograms) was 31,347 CPM and the “Average percent inhibition” value ([2]; 100 micrograms) was 93.0%. The CPM ([2]; 100 micrograms) was 28,946 CPM and 33,748 CPM, the EC50 [3] was 120 nM and the “antiviral activity vs frequency of treatment” value ([4]; 10 micrograms every day for ten days) was “less effective than even a single 10-microgram dose”. For the same compound, the “antiviral activity vs frequency of treatment” value ([4]; 10 micrograms once a week) was “as effective as the single 10-microgram dose”, the “antiviral activity vs dose” value ([4]; single dose of ten micrograms per mouse) was “less effective than a single dose of 100 micrograms per mouse” and the “activity across assays” value [5] was “high degree of activity in a more than one assay”.
